This is an account of results in patent US20100040565A1, “ACTIVE DELIVERY SYSTEMS FORMULATIONS” (Castle Beach, LLC, priority 2008, published 2010).

Data set [1] is classed as physicochemical. How it is done: DEET is incorporated into the pores, if any present, and onto the surfaces of a carrier. The evaporation rate of DEET from a thin film was then measured by weight. The film was smeared onto a glass slide and its weight was measured as a function of time. The initial weight of the film was 0.0231 grams and the area that was covered was […] (thickness ca 10 microns). The weight of the film leveled off at 0.019 grams when the DEET was fully evaporated, approximately 36 hours after application. Half of the DEET, about 2 milligrams on 3 square inches, remained 16 hours after application.

Data set [2] in a line: Behaviour of the permethrin-on-carrier formulation on substrates (activity duration, spreading, adherence). Conditions: permethrin trapped in porous carrier (Silcron G100) in barrier/transfer agent composition.

Turning to `CCN(CC)C(=O)c1cccc(C)c1` [DEET], the “Amount of DEET remaining” value in data set [1] (16 h) is “about 2 milligrams”. Moreover, the “Time after application at which half of the DEET remained” value in data set [1] (thin film ca 10 microns on glass slide) was found to be 16 h. In addition, the “Time until DEET was fully evaporated from the film” value in data set [1] (thin film ca 10 microns smeared on glass slide, initial film weight 0.0231 grams, time after application) is “approximately 36 hours”. Also, the “Weight at which the film leveled off” value in data set [1] (when the DEET was fully evaporated, initial film weight 0.0231 grams) is reported as 0.019 grams.

`CC1(C)C(C=C(Cl)Cl)C1C(=O)OCc1cccc(Oc2ccccc2)c1` (centres unmarked) [permethrin]: in data set [2], the “Activity duration of permethrin in the formulation” value is reported as “significantly prolonged”.
